Data from patent US10034883B2, “Mesoporous dosage forms for poorly soluble drugs” (SIEGFRIED AG, priority 2013, dated 2018).

Experiment: First trials dissolving rivaroxaban into Soluplus polymer
Format: physicochemical
Settings: total API/Polymer ratio=0.1

maximum amount of rivaroxaban dissolvable into Soluplus: ≤ 10%
Compound: O=C(NC[C@H]1CN(c2ccc(N3CCOCC3=O)cc2)C(=O)O1)c1ccc(Cl)s1 [rivaroxaban]
